The target of the first experiment is ATP-dependent translocase ABCB1 (Homo sapiens, UniProt P08183). As to the kind of experiment: Inhibition of P-glycoprotein-mediated daunorubicin efflux from human CCRF-CEM/VCR1000 cells after 240 secs by FACS flow cytometric analysis. The following applies: read-out: IC50. For orientation: Flow cytometry measures light scatter and fluorescence of single cells or particles in a stream.
Chain of ATP-dependent translocase ABCB1 (P08183 whole entry): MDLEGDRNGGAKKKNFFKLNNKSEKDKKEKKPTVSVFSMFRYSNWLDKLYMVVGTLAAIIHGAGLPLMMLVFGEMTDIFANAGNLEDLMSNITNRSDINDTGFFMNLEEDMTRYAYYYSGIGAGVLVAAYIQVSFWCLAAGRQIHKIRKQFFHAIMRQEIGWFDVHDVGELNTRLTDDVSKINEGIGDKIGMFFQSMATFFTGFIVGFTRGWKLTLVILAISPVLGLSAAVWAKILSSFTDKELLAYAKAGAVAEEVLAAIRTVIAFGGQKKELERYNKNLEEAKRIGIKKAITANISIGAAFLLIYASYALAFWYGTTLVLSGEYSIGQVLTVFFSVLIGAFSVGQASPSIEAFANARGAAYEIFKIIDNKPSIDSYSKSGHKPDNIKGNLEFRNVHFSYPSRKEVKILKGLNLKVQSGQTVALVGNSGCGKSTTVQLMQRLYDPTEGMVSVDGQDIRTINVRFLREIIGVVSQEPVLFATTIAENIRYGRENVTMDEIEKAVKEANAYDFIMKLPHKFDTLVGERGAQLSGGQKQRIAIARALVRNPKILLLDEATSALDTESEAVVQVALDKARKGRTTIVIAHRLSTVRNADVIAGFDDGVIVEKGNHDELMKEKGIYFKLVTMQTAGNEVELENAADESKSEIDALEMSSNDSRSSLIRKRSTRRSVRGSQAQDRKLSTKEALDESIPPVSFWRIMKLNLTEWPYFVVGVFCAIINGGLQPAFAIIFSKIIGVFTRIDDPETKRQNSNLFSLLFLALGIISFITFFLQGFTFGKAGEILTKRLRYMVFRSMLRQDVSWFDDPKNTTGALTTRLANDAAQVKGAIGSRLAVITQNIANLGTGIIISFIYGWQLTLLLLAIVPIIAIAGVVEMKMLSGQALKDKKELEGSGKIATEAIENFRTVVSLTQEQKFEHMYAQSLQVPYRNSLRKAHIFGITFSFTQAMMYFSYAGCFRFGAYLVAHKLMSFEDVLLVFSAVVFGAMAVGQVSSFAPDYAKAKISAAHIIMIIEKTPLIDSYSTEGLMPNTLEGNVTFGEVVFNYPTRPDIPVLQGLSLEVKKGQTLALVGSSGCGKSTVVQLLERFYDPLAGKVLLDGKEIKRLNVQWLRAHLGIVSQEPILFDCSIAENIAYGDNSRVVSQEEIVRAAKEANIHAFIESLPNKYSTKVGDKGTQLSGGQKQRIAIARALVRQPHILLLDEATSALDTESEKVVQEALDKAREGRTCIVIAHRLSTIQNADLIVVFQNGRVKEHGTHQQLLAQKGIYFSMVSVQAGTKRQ
For `O=C(c1ccccc1)c1ccccc1OCC(O)CN1CCC(O)(c2ccccc2)CC1` (configuration not stated), the IC50 was determined as 310 nM.

For the compound `O=C(c1ccccc1)c1ccccc1OCC(O)CN1CCN(c2ccc(F)cc2)CC1` (configuration not stated), the IC50 was found to be 150 nM.

Consider `O=C(c1ccccc1)c1ccc(OCC(O)CN2CCOCC2)cc1` (configuration not stated), for which the IC50 was 5320 nM.

`O=C(c1ccccc1)c1ccc(OCC(O)CN2CCCCC2)cc1` (configuration not stated): the IC50 came out at 2180 nM.

As for `O=C(c1ccccc1)c1ccccc1OCC(O)CN1CCOCC1` (configuration not stated), the IC50 is 13400 nM.

Consider `Cc1cccc(N2CCN(CC(O)COc3cccc(C(=O)c4ccccc4)c3)CC2)c1C` (configuration not stated), for which the IC50 stood at 170 nM.

Take `Cc1cccc(N2CCN(CC(O)COc3ccc(C(=O)c4ccccc4)cc3)CC2)c1C` (configuration not stated): the IC50 is 650 nM.

With `O=C(c1ccccc1)c1cccc(OCC(O)CN2CCN(c3ccc(F)cc3)CC2)c1` (configuration not stated), the IC50 amounted to 580 nM.

As for `O=C(c1ccccc1)c1ccc(OCC(O)CN2CCN(c3ccc(F)cc3)CC2)cc1` (configuration not stated), the IC50 is 970 nM.

Turning to `O=C(c1ccccc1)c1ccccc1OCC(O)CN1CCCCC1` (configuration not stated), the IC50 is 1200 nM.

As for `O=C(c1ccccc1)c1cccc(OCC(O)CN2CCCCC2)c1` (configuration not stated), the IC50 worked out at 3550 nM.

`Cc1ccccc1N1CCN(CC(O)COc2cccc(C(=O)c3ccccc3)c2)CC1` (configuration not stated): the IC50 stood at 200 nM.

On to `Cc1ccccc1N1CCN(CC(O)COc2ccc(C(=O)c3ccccc3)cc2)CC1` (configuration not stated), for which the IC50 is 500 nM.

For the compound `CCCNCC(O)COc1ccccc1C(=O)c1ccc(C)cc1` (configuration not stated), the IC50 came out at 1210 nM.

As to `Cc1ccc(NC(=O)N2CCN(CC(O)COc3ccccc3C(=O)c3ccccc3)CC2)cc1` (configuration not stated), the IC50 amounted to 480 nM.

On to `Cc1ccc(NC(=S)N2CCN(CC(O)COc3ccccc3C(=O)c3ccccc3)CC2)cc1` (configuration not stated), for which the IC50 amounted to 380 nM.

As to `O=C(c1ccccc1)c1ccccc1OCC(O)CN1CCN(CC(O)COc2ccccc2C(=O)c2ccccc2)CC1` (configuration not stated), the IC50 worked out at 50 nM.

For the compound `CC(=O)c1cc(C)ccc1OCC(O)CN1CCN(CC(O)COc2ccccc2C(=O)c2ccccc2)CC1` (configuration not stated), the IC50 was determined as 9480 nM.

The same experiment, now with this note: read-out: pIC50 (converted).
Consider `CCOC/C=C/c1ccc(-c2nc(-c3ccc(NC(C)C)cc3)c(-c3ccc(NC(C)C)cc3)[nH]2)cc1`, for which the IC50 was 31.6 nM.

Consider `O=C(CCc1ccccc1)c1ccccc1OCC(O)CN1CCCCC1` (configuration not stated), for which the IC50 is 603 nM.

For `O=C(CCc1ccccc1)c1ccccc1OCC(O)CN1CCC(O)(c2ccccc2)CC1` (configuration not stated), the IC50 is 57.5 nM.

Take `COc1cc2c(cc1OC)CN(CCc1ccc(NC(=O)c3cc(OC)c(OC)cc3NC(=O)c3cnc4ccccc4c3)cc1)CC2`: the IC50 is 33.1 nM.

The values are drawn from ChEMBL document CHEMBL2057194, “Structure-activity relationships, ligand efficiency, and lipophilic efficiency profiles of benzophenone-type inhibitors of the multidrug transporter P-glycoprotein” (J Med Chem, 2012).
